Earlier results in patent US20050277597A1, “Use of N-L-alpha-aspartyl-L-phenylalanine 1-methyl ester to treat sunburn and other burns” (Oklahoma Medical Research Foundation, priority 2004, published 2005).
Where a SMILES comes first, the peptide text is derived from it.

COC(=O)[C@H](Cc1ccccc1)NC(=O)[C@@H](N)CC(=O)O [aspartame, N-L-aspartyl-L-phenyalanine 1-methyl ester] (H-Asp-Phe-OMe)
maximum solubility in water (pH 2.2, 25° C.): 20 mg/mL
minimum solubility in water (pH 5.2 (pHi), 25° C.): 13.5 mg/mL
